From US12697330B2, “Therapeutic methods using vadadustat” (Akebia Therapeutics, Inc., priority 2021, dated 2026) come the findings set out here.

The subject of experiment [1] is erythropoietin (EPO). Description: Phase 2 study, Main Study: pharmacodynamics, Baseline-Unadjusted serum EPO concentration. The class given is in vivo, human. How it is done:
PK/PD Endpoints. An exposure-response analysis of vadadustat and PD measures were conducted as deemed appropriate. The PK parameters included (but were not limited to) the following: area under concentration-time curve from dosing to last measurable concentration (AUClast), area under concentration-time curve from dosing to infinity (AUCinf), Cmax, apparent total body clearance (CL/F), apparent volume of distribution (Vd/F), and terminal half-life (t1/2). The PD parameters included (but were not limited to) the following: EPO, reticulocytes, iron, ferritin, TIBC, and hepcidin.
PK population: included all randomized subjects who received study drug (vadadustat or epoetin alfa) and had enough drug concentrations to estimate AUC and Cmax. Analysis of this population was based on the dose amount taken at the date of PK sampling for the vadadustat group.
PD parameters for serum EPO concentration are presented by epoetin alfa stratification for vadadustat treatment groups in Table 7, Table 8a and Table 8b (baseline-unadjusted) and Table 9, Table 10a and Table 10b (baseline-adjusted).

Experiment [2] deals with erythropoietin (EPO). Description: Phase 1b study: pharmacodynamics, Baseline-unadjusted serum EPO concentration. The class given is in vivo, human. How it is done:
PK and EPO Sample. For each vadadustat treatment group, blood samples for vadadustat PK (and its metabolites) and EPO were collected at the following time points: Day 1: predose, and at 1, 2, 3, 4, 5, 8, and 11 hours post dose; Day 2: 24 hours (−2 hours) post Day 1 dose; Day 6: blood sample for EPO analysis only was collected predose on Day 6; Day 8: predose, and at 1, 2, 3, 4, 5, 8, 11 hours post dose, Day 10 or EOT: predose. For the ESA treatment group, blood samples for analysis of EPO were collected at the following time points: Day 1: predose, and at 0.25, 1, 2, 3, 4, 5, 8, and 11 hours post dose; Day 2: 24 hours (−2 hours) post Day 1 dose.
PD Sampling. For all vadadustat and ESA treatment groups, in addition to EPO, blood samples for Hb, reticulocytes and iron indices for PD analyses were collected on Day 1, Day 6 and Day 10. Hepcidin were collected predose on Day 1, Day 6, and Day 10 for PD analysis.
Secondary Endpoints. For each treatment group, PD parameters included, but were not limited to, as deemed appropriate: hepcidin, erythropoietin (EPO), iron indices (iron, ferritin, total iron-binding capacity [TIBC], TSAT), Hb, and reticulocytes.
The summary of serum concentration of Baseline-unadjusted EPO by time for the vadadustat treatment groups in the PK population are presented in FIGS. 1a-11b and FIGS. 12a-12b. The summary of PD parameters for Baseline-unadjusted serum EPO concentration for vadadustat treatment groups by dosing days for the PK population are summarized in Table 2.

The mark [3] stands for this setting: low epoetin alfa stratum, Week 1 and Week 1+1 day.

For `O=C(O)CNC(=O)c1ncc(-c2cccc(Cl)c2)cc1O` [vadadustat, {[5-(3-chlorophenyl)-3-hydroxypyridine-2-carbonyl]amino}acetic acid], the “EPO concentration versus dose” value in experiment [1] (high epoetin alfa stratum) was “No particular trend”; in experiment [1] (low epoetin alfa stratum, Week 1 and Week 1+1 day (300, 450 mg), Week 11 (150 to 600 mg)), “Dose dependent increases in EPO concentrations”. In addition, the “EPO Cmax versus dose” value in experiment [1] (high epoetin alfa stratum, Week 1) is “dose dependent”. In experiment [1] (setting [3]), the “EPO Cmax and AUC versus comparator” value is “lower compared to the epoetin alfa treatment group”. Further, the “EPO Cmax and AUC versus dose” value in experiment [1] (setting [3]) is reported as “dose proportional”. In addition, the EPO response entry in experiment [2] (600, 750, 900 mg QD, Day 1 and Day 8) was “variable EPO response”. For the same molecule, the “EPO after administration versus dose” value in experiment [2] (Day 8) is listed as “dose-dependent increase of EPO”.
